± gives the expanded uncertainty stated by the source.
Conditions: 101.33 kPa, Liquid; for viscosity: Cone and plate viscometry; for mass density: Vibrating tube method

c1cn(CCOCCOCCOCCn2ccnc2)cn1
Conditions	mass density [kg/m3]	viscosity [mPa·s]
298.2 K	1172.67 ± 1.2	535.6 ± 27
303.2 K	1168.77 ± 1.2	356 ± 16
308.2 K	1164.87 ± 1.2	240.2 ± 9.5
313.2 K	1161.05 ± 1.2	178.2 ± 6.2
318.2 K	1157.29 ± 1.2	129.2 ± 4
323.2 K	1153.51 ± 1.2	93.9 ± 2.7
328.2 K	1149.74 ± 1.2	69.8 ± 1.8
333.2 K	1145.96 ± 1.2	56.8 ± 1.4
338.2 K	1142.19 ± 1.1	44.9 ± 1.1
343.2 K	1138.43 ± 1.1	36.7 ± 0.9
348.2 K	1134.66 ± 1.1	29.1 ± 0.7
353.2 K	1130.91 ± 1.1	24.9 ± 0.6

CCCCCCCCCCCCn1ccnc1 [1-dodecyl-1H-imidazole]
Conditions	mass density [kg/m3]	viscosity [mPa·s]
298.2 K	898.68 ± 0.74	24 ± 0.3
303.2 K	895.23 ± 0.73	20.1 ± 0.3
308.2 K	891.79 ± 0.73	15.9 ± 0.2
313.2 K	888.35 ± 0.73	13.3 ± 0.2
318.2 K	884.92 ± 0.72	11.1 ± 0.2
323.2 K	881.49 ± 0.72	9.42 ± 0.12
328.2 K	878.07 ± 0.71	8.06 ± 0.1
333.2 K	874.64 ± 0.71	6.96 ± 0.09
338.2 K	871.22 ± 0.71	6 ± 0.08
343.2 K	867.81 ± 0.7	5.33 ± 0.07
348.2 K	864.4 ± 0.7	4.7 ± 0.06
353.2 K	860.98 ± 0.7	4.16 ± 0.05

— the NIST ThermoML archive (doi:10.1016/j.fluid.2014.06.026)
